From ChEMBL document CHEMBL5465560, “Selectivity Literature for EUbOPEN Chemogenomic Library” (2024)
Blank lines part the entries; values can stand above or below the compound they belong to.

How the values were obtained:
[1] = target: T1, cAMP-dependent protein kinase catalytic subunit alpha (Homo sapiens, UniProt P17612); test: Selectivity interaction (Kinase panel (radiometric inhibition assay)) EUB0000651a PRKACA
[2] = target: Leukocyte tyrosine kinase receptor (Homo sapiens, UniProt P29376); test: Selectivity interaction (Kinase panel (radiometric inhibition assay)) EUB0000651a LTK
[3] = target: T2, Tyrosine-protein kinase SYK (Homo sapiens, UniProt P43405); test: Selectivity interaction (Kinase panel (radiometric inhibition assay)) EUB0000651a SYK
[4] = target: Calcium/calmodulin-dependent protein kinase type II subunit alpha (Homo sapiens, UniProt Q9UQM7); test: Selectivity interaction (Kinase panel (radiometric inhibition assay)) EUB0000651a CAMK2A
[5] = target: Protein kinase C alpha type (Homo sapiens, UniProt P17252); test: Selectivity interaction (Kinase panel (radiometric inhibition assay)) EUB0000651a PRKCA
Aurora kinase B = Aurora kinase B (Homo sapiens, UniProt Q96GD4); test: Selectivity interaction (TR-FRET binding assay) EUB0000644a AURKB
[6] = target: Mitogen-activated protein kinase 14 (Homo sapiens, UniProt Q16539); test: Selectivity interaction (TR-FRET binding assay) EUB0000644a MAPK14
[7] = target: ALK tyrosine kinase receptor (Homo sapiens, UniProt Q9UM73); test: Selectivity interaction (TR-FRET binding assay) EUB0000644a ALK
[8] = target: Mitogen-activated protein kinase 8 (Homo sapiens, UniProt P45983); test: Selectivity interaction (TR-FRET binding assay) EUB0000644a MAPK8
[9] = target: Tyrosine-protein kinase BTK (Homo sapiens, UniProt Q06187); test: Selectivity interaction (TR-FRET binding assay) EUB0000644a BTK
[10] = target: 5'-AMP-activated protein kinase catalytic subunit alpha-1 (Homo sapiens, UniProt Q13131); test: Selectivity interaction (TR-FRET binding assay) EUB0000644a PRKAA1
[11] = target: Ribosomal protein S6 kinase alpha-3 (Homo sapiens, UniProt P51812); test: Selectivity interaction (TR-FRET binding assay) EUB0000644a RPS6KA3
CDK7/Cyclin H/MNAT1 = CDK7/Cyclin H/MNAT1 (Homo sapiens, UniProt P50613); test: Selectivity interaction (TR-FRET binding assay) EUB0000644a […]; assay type: protein-complex assay
[12] = target: T2, Tyrosine-protein kinase SYK; test: Selectivity interaction (TR-FRET binding assay) EUB0000644a SYK
[13] = target: T1, cAMP-dependent protein kinase catalytic subunit alpha; test: Selectivity interaction (TR-FRET binding assay) EUB0000644a PRKACA
[14] = target: G protein-coupled receptor kinase 5 (Homo sapiens, UniProt P34947); test: Selectivity interaction (TR-FRET binding assay) EUB0000644a GRK5
[15] = target: Vascular endothelial growth factor receptor 2 (Homo sapiens, UniProt P35968); test: Selectivity interaction (TR-FRET binding assay) EUB0000644a KDR
CDK8/Cyclin C = CDK8/Cyclin C (Homo sapiens, UniProt P49336); test: Selectivity interaction (TR-FRET binding assay) EUB0000644a CDK8; assay type: protein-complex assay
[16] = target: Tyrosine-protein kinase Lck (Homo sapiens, UniProt P06239); test: Selectivity interaction (TR-FRET binding assay) EUB0000644a LCK
[17] = target: Epidermal growth factor receptor (Homo sapiens, UniProt P00533); test: Selectivity interaction (TR-FRET binding assay) EUB0000644a EGFR
[18] = target: Tyrosine-protein kinase ABL1 (Homo sapiens, UniProt P00519); test: Selectivity interaction (TR-FRET binding assay) EUB0000644a ABL1
[19] = target: Cyclin-dependent kinase 2 (Homo sapiens, UniProt P24941); test: Selectivity interaction (TR-FRET binding assay) EUB0000644a CDK2
[20] = target: Hepatocyte growth factor receptor (Homo sapiens, UniProt P08581); test: Selectivity interaction (TR-FRET binding assay) EUB0000644a MET
[21] = target: Cyclin-dependent kinase 11A (Homo sapiens, UniProt Q9UQ88); test: Selectivity interaction (TR-FRET binding assay) EUB0000644a CDK11A

Chain of Mitogen-activated protein kinase 14 (Q16539 whole entry): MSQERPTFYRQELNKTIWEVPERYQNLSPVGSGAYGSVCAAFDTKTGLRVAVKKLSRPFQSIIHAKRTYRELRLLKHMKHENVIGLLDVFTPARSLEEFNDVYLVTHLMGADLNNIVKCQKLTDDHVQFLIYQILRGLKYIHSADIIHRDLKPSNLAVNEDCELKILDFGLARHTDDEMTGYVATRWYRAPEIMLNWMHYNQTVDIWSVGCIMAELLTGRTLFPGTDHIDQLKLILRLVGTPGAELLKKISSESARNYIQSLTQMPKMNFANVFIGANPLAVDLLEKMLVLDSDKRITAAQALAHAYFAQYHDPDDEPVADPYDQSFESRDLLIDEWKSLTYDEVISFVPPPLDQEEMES
Chain of Tyrosine-protein kinase BTK (Q06187 whole entry): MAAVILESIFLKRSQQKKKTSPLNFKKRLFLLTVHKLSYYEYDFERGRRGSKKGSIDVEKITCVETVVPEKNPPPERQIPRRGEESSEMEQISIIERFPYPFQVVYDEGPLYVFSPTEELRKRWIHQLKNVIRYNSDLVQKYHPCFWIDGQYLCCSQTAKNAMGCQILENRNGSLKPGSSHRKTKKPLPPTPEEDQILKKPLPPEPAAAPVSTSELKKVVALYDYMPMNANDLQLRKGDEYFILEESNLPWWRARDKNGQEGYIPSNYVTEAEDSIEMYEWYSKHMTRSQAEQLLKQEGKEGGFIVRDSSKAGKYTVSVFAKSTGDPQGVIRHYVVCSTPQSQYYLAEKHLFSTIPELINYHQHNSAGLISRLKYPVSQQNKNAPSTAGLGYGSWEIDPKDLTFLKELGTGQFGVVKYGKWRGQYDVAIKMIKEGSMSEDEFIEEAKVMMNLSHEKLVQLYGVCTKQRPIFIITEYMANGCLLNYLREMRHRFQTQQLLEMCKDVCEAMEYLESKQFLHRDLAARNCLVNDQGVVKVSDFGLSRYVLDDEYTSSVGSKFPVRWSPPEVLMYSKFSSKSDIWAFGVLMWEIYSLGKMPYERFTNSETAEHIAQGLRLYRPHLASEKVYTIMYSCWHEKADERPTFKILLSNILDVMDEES
Chain of 5'-AMP-activated protein kinase catalytic subunit alpha-1 (Q13131 whole entry): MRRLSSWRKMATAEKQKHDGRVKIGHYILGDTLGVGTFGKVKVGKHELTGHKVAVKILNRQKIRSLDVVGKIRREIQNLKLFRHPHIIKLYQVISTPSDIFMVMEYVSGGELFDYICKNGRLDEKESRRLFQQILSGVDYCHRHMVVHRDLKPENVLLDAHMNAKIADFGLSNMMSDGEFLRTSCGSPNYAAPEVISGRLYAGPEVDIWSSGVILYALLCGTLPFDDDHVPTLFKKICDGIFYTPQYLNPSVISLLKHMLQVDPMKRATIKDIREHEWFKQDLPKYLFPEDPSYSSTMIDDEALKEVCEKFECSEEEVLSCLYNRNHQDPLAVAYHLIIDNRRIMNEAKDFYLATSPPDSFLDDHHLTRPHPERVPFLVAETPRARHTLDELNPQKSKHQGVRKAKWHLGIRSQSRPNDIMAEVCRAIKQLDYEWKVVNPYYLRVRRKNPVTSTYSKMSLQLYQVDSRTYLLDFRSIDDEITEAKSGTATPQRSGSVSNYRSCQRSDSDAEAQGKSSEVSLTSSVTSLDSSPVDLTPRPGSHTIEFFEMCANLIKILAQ
Chain of CDK8/Cyclin C (P49336 whole entry): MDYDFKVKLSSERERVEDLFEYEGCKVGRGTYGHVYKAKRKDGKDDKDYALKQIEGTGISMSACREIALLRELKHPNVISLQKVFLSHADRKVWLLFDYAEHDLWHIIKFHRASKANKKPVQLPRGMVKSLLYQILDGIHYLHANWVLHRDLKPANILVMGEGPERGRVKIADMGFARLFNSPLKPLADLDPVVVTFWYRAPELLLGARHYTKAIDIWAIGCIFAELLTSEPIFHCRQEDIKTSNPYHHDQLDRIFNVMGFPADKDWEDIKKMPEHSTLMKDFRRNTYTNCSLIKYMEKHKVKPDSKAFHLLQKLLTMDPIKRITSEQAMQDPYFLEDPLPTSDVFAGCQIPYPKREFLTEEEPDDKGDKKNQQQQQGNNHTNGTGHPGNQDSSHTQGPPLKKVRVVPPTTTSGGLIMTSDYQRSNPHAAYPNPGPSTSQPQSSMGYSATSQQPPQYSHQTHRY
Chain of CDK8/Cyclin C (P24863 whole entry, further chain): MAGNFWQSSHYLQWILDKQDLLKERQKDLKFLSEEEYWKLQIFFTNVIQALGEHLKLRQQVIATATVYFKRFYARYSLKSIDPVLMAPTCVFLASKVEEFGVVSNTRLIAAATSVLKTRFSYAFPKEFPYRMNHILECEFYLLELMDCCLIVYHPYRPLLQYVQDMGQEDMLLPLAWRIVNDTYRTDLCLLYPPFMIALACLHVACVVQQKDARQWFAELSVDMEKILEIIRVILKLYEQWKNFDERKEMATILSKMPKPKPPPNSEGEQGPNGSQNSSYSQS
Chain of ALK tyrosine kinase receptor (Q9UM73 whole entry): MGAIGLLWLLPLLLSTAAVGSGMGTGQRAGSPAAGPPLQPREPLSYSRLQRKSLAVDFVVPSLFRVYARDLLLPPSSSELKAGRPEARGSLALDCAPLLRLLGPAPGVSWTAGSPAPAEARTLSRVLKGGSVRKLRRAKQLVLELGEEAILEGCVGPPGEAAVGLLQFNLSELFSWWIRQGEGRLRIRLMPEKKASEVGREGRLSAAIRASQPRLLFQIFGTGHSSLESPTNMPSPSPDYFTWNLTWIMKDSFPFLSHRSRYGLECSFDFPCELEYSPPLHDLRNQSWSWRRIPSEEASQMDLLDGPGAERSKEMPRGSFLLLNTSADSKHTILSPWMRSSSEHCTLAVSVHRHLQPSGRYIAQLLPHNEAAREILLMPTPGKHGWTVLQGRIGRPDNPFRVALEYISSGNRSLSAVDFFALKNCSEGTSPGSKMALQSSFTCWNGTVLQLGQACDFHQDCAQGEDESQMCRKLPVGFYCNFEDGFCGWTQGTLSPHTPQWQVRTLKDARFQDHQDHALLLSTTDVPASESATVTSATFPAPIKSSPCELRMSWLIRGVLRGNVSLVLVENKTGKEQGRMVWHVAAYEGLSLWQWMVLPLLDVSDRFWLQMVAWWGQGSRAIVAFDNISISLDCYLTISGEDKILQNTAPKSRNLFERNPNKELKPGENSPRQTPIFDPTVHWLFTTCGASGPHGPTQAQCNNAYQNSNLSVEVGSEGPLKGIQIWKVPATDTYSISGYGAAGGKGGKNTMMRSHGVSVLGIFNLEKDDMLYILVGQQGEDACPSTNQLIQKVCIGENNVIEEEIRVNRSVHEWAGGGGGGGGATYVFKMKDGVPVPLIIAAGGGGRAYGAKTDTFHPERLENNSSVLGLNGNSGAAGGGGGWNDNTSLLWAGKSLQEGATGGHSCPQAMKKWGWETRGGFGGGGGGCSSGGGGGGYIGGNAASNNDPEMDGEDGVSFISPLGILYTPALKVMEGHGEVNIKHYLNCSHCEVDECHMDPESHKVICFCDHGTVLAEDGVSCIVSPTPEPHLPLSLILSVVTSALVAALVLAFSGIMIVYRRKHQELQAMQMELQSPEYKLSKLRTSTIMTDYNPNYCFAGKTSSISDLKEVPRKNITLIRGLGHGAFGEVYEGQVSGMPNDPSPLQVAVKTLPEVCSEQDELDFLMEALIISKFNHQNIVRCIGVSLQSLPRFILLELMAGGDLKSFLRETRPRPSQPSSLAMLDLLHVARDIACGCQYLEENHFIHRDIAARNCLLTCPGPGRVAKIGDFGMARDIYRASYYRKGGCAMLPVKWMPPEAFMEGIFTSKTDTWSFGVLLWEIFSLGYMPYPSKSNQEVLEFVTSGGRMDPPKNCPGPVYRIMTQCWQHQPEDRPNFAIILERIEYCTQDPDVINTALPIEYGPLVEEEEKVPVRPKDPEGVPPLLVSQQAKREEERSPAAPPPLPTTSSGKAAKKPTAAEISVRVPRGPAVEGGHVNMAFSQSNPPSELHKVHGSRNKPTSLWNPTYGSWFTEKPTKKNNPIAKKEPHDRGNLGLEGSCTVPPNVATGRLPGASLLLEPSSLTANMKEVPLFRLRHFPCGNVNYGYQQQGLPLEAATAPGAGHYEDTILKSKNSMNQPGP
Chain of Mitogen-activated protein kinase 8 (P45983 whole entry): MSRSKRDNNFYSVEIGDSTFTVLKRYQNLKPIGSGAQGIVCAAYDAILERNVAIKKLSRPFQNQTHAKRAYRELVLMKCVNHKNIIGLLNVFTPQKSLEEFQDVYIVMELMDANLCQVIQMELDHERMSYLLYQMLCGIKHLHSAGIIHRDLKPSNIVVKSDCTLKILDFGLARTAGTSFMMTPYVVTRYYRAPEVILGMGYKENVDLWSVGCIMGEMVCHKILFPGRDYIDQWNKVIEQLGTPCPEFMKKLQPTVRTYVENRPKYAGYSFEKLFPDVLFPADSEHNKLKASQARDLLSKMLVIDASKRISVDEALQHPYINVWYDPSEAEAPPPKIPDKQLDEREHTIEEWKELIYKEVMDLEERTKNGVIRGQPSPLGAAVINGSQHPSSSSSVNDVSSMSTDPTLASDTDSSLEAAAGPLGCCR

- IC50 [1]: > 50 µM
- IC50 [2]: 2.4 µM
- IC50 [3]: > 50 µM
- IC50 [4]: 33.5 µM
- IC50 [5]: 24 µM
Compound: COc1cc(C)c(Sc2cnc(NC(=O)c3ccc(CNC(C)C(C)(C)C)cc3)s2)cc1C(=O)N1CCN(C(C)=O)CC1 (centres undefined)

Compound: CC[C@@H]1CN(C(=O)NCC(F)(F)F)C[C@@H]1c1cnc2cnc3[nH]ccc3n12 [UPADACITINIB]
- IC50 (Aurora kinase B): 5.5 µM
- IC50 [6]: > 10 µM
- IC50 [7]: 5.5 µM
- IC50 [8]: > 10 µM
- IC50 [9]: > 10 µM
- IC50 [10]: 4.5 µM
- IC50 [11]: 9.6 µM
- IC50 (CDK7/Cyclin H/MNAT1): > 10 µM
- IC50 [12]: > 10 µM
- IC50 [13]: > 10 µM
- IC50 [14]: 7.9 µM
- IC50 [15]: 1.5 µM
- IC50 (CDK8/Cyclin C): > 10 µM
- IC50 [16]: 10 µM
- IC50 [17]: > 10 µM
- IC50 [18]: > 10 µM
- IC50 [19]: > 10 µM
- IC50 [20]: > 10 µM
- IC50 [21]: > 10 µM
